Laboratory results from patent publication US11530244B2, “Cyclic polypeptides for PCSK9 inhibition” (priority 2018, dated 2022).
Starred links: 1 amine or outer side, 2 acyl side, 3 side chain; linkers in the order of their positions; H or OH if unused. Positions of bridges follow the written chain, without caps; N, C: chain ends. Non-standard residues stand in square brackets, D forms with d. Residues, ends and D or L forms follow the SMILES beside them. NHCH2(1,3-C6H4)CH2CO = O=C(Cc1cccc(CN[*:1])c1)[*:2]; Phe(4-COOH) = N[C@@H](Cc1ccc(C(=O)O)cc1)C(=O)O; Trp(5-F) = N[C@@H](Cc1c[nH]c2ccc(F)cc12)C(=O)O; Trp(6-F) = N[C@@H](Cc1c[nH]c2cc(F)ccc12)C(=O)O; Asp(3,3-Me2) = CC(C)(C(=O)O)[C@H](N)C(=O)O; Bip = N[C@@H](Cc1ccc(-c2ccccc2)cc1)C(=O)O; Pro(cis-4-F) = O=C(O)[C@@H]1C[C@H](F)CN1; TBMB = c1c(C[*:1])cc(C[*:3])cc1C[*:2]; mXylylene = c1cc(C[*:1])cc(C[*:2])c1; X7 = O=C(Cc1ccc(CN[*:1])cc1)[*:2]; β3hT = C[C@@H](O)[C@H](N)CC(=O)O; aThr = C[C@H](O)[C@H](N)C(=O)O; αMeP = C[C@@]1(C(=O)O)CCCN1; Ahx = NCCCCCC(=O)O; Ava = NCCCCC(=O)O; Mpa = O=C(O)CCS

Columns and labels:
[1] = biological target: human PCSK9 / human LDLR EGFa domain interaction (Homo sapiens (Human), UniProt Q8NBP7); test: TR-FRET assay of inhibition of the PCSK9-LDLR protein-protein interaction; type: binding; conditions: TR-FRET, 20 nM human PCSK9, 20 nM human LDLR EGFa domain, 2 hours room temperature; read-out: IC50
Sequence of human PCSK9 / human LDLR EGFa domain interaction (Q8NBP7 153-692): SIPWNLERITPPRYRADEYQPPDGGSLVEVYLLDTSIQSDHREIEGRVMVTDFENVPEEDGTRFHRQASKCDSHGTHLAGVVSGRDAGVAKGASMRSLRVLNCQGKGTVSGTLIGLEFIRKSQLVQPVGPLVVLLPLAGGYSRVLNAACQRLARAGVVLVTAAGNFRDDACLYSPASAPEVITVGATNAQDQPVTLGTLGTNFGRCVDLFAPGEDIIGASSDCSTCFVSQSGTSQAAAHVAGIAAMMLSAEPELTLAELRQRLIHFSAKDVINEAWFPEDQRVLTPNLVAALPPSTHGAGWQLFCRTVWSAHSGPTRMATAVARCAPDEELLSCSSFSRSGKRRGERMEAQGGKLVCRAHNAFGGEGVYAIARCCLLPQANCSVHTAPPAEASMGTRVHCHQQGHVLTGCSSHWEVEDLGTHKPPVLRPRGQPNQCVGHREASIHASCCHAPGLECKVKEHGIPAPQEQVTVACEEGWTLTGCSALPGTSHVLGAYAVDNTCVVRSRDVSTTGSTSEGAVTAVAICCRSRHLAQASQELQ
Sequence of human PCSK9 / human LDLR EGFa domain interaction (Q8NBP7 31-152 partner): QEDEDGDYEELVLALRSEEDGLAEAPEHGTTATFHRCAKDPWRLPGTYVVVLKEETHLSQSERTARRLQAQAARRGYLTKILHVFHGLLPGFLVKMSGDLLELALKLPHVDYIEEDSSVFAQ
Method in brief: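 Biotinylated PCSK9 (20 nM) and His-tagged LDLR EGFa domain (20 nM) were incubated 2 h at room temperature with 5 nM Ulight-streptavidin and 5 nM Eu-anti-His in HEPES/NaCl/CaCl2 buffer with 0.01% BSA and 0.01% P20. TR-FRET was read; half-maximal inhibitory concentrations came from 4-parameter dose-response fits.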

PCSK9 = PCSK9 (Homo sapiens (Human), UniProt Q8NBP7); test: PCSK9 Alexa FRET Standard assay (displacement of AlexaFluor647 tagged cyclic peptide Reagent A); type: binding; conditions: PCSK9 Alexa FRET Standard assay, 0.5 nM PCSK9, 20 nM AF cyclic peptide Reagent A; read-out: IC50
Sequence of PCSK9 (Q8NBP7 153-692): as the sequence (Q8NBP7 153-692) above
Method in brief: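 TR-FRET displacement: 0.5 nM biotinylated PCSK9 with 1.25 nM Strep-Eu and 20 nM AlexaFluor-tagged cyclic peptide (final) in 50 mM HEPES pH 7.4, 0.15 M NaCl, 5 mM CaCl2, 0.01% BSA, 0.01% P20, ≥2 h at room temperature. IC50 from sigmoidal fit, converted to Ki via peptide KD; falling Eu counts flagged false positives.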

| SMILES | IC50 [1] | IC50 (PCSK9) |
| --- | --- | --- |
| C[C@H]1NC(=O)[C@H](CCCCN)NC(=O)CCSCc2cccc(c2)CSC[C@@H](C(N)=O)NC(=O)[C@]2(C)CCCN2C(=O)[C@H](Cc2ccc(O)cc2)NC(=O)[C@H](Cc2cnc[nH]2)NC(=O)[C@H](C(C)(C)C(=O)O)NC(=O)[C@H](Cc2c[nH]c3ccc(F)cc23)NC(=O)[C@H](Cc2c[nH]c3ccc(F)cc23)NC1=O [Compound 361] ([Mpa]K[dA][Trp(5-F)][Trp(5-F)][Asp(3,3-Me2)]HY[αMeP]C-NH2; linker 1-10 via mXylylene) | 0.0001 to 0.1 µM | 0.1 to 1 µM |
| COc1ccc(C[C@@H]2NC(=O)[C@H](Cc3cnc[nH]3)NC(=O)[C@H](CC(=O)O)NC(=O)[C@H](Cc3c[nH]c4ccc(F)cc34)NC(=O)[C@H](Cc3c[nH]c4ccc(F)cc34)NC(=O)[C@@H](C)NC(=O)Cc3cccc(c3)CNC(=O)c3ccc(cc3)C[C@@H](C(N)=O)NC(=O)[C@]3(C)CCCN3C2=O)cc1 [Compound 390] ([NHCH2(1,3-C6H4)CH2CO][dA][Trp(5-F)][Trp(5-F)]DHY(Me)[αMeP][Phe(4-COOH)]-NH2; lactam N-9) | 0.0001 to 0.1 µM | 0.1 to 1 µM |
| COc1ccc(C[C@@H]2NC(=O)[C@H]([C@@H](C)O)NC(=O)[C@@H]3CCCN3C(=O)[C@H](Cc3c[nH]c4ccc(F)cc34)NC(=O)[C@H](Cc3c[nH]c4ccc(F)cc34)NC(=O)[C@@H](C)NC(=O)[C@H](CCCCN)NC(=O)CCSCc3cc(C)cc(c3)CSC[C@@H](C(N)=O)NC(=O)[C@]3(C)CCCN3C2=O)cc1 [Compound 062] ([Mpa]K[dA][Trp(5-F)][Trp(5-F)]PTY(Me)[αMeP]C-NH2; linker 1-10 via TBMB) | 1 to 12.1 µM | 1 to 12.1 µM |
| COc1ccc(C[C@@H]2NC(=O)[C@H]([C@H](C)O)NC(=O)[C@@H]3C[C@H](F)CN3C(=O)[C@H](Cc3c[nH]c4ccc(F)cc34)NC(=O)[C@H](Cc3c[nH]c4ccc(F)cc34)NC(=O)[C@@H](C)NC(=O)[C@H](CCCCN)NC(=O)[C@H](NC(C)=O)CCc3cn(nn3)-c3ccc(cc3)C[C@@H](C(N)=O)NC(=O)[C@]3(C)CCCN3C2=O)cc1 [Compound 068] | 0.0001 to 0.1 µM | 0.00011 to 0.1 µM |
| COc1ccc(C[C@@H]2NC(=O)[C@H](Cc3cnc[nH]3)NC(=O)[C@H](CC(=O)O)NC(=O)[C@H](Cc3c[nH]c4ccc(F)cc34)NC(=O)[C@H](Cc3c[nH]c4ccc(F)cc34)NC(=O)[C@@H](C)NC(=O)Cc3ccc(cc3)CNC(=O)c3ccc(cc3)C[C@@H](C(N)=O)NC(=O)[C@]3(C)CCCN3C2=O)cc1 [Compound 391] ([X7][dA][Trp(5-F)][Trp(5-F)]DHY(Me)[αMeP][Phe(4-COOH)]-NH2; lactam N-9) | 0.0001 to 0.1 µM | 0.1 to 1 µM |
| COc1ccc(C[C@@H]2NC(=O)[C@H]([C@H](C)O)NC(=O)[C@@H]3C[C@H](F)CN3C(=O)[C@H](Cc3c[nH]c4cc(F)ccc34)NC(=O)[C@H](Cc3c[nH]c4ccc(F)cc34)NC(=O)[C@@H](C)NC(=O)CCCCCNC(=O)c3ccc(cc3)C[C@@H](C(N)=O)NC(=O)[C@]3(C)CCCN3C2=O)cc1 [Compound 057] ([Ahx][dA][Trp(5-F)][Trp(6-F)][Pro(cis-4-F)][aThr]Y(Me)[αMeP][Phe(4-COOH)]-NH2; lactam N-9) | 1 to 12.1 µM | 21 to 50 µM |
| COc1ccc(C[C@@H]2NC(=O)[C@H](Cc3cnc[nH]3)NC(=O)[C@H](CC(=O)O)NC(=O)[C@H](Cc3c[nH]c4ccc(F)cc34)NC(=O)[C@H](Cc3c[nH]c4ccc(F)cc34)NC(=O)[C@@H](C)NC(=O)CCCCNC(=O)c3ccc(cc3)C[C@@H](C(N)=O)NC(=O)[C@]3(C)CCCN3C2=O)cc1 [Compound 380] ([Ava][dA][Trp(5-F)][Trp(5-F)]DHY(Me)[αMeP][Phe(4-COOH)]-NH2; lactam N-9) | 21 to 50 µM | 21 to 50 µM |
| NCCCC[C@@H]1NC(=O)CCSCc2cccc(c2)CSC[C@@H](C(N)=O)NC(=O)[C@@H]2CCCN2C(=O)[C@H](Cc2ccc(O)cc2)NC(=O)[C@H](Cc2c[nH]cn2)NC(=O)[C@H](CC(=O)O)NC(=O)[C@H](Cc2c[nH]c3ccc(F)cc23)NC(=O)[C@H](Cc2ccc(-c3ccccc3)cc2)NC(=O)CNC1=O [Compound 210] ([Mpa]KG[Bip][Trp(5-F)]DHYPC-NH2; linker 1-10 via mXylylene) | 1 to 12.1 µM | 1 to 12.1 µM |
| COc1ccc(C[C@@H]2NC(=O)[C@@H]3CCC/C=C\CO[C@H]4C[C@@H](C(=O)N3)N(C4)C(=O)[C@H](Cc3c[nH]c4ccc(F)cc34)NC(=O)[C@H](Cc3c[nH]c4ccc(F)cc34)NC(=O)[C@@H](C)NC(=O)[C@H](CCCCN)NC(=O)CCSCc3cccc(c3)CSC[C@@H](C(N)=O)NC(=O)[C@]3(C)CCCN3C2=O)cc1 [Compound 500] | 1 to 12.1 µM | 1 to 12.1 µM |
| C[C@@H](O)[C@H]1CC(=O)N[C@@H](Cc2ccc(O)cc2)C(=O)N2CCC[C@@]2(C)C(=O)N[C@H](C(N)=O)CSCc2cccc(c2)CSCCC(=O)N[C@@H](CCCCN)C(=O)NCC(=O)N[C@@H](Cc2c[nH]c3ccc(F)cc23)C(=O)N[C@@H](Cc2c[nH]c3ccc(F)cc23)C(=O)N2CCC[C@H]2C(=O)N1 [Compound 051] ([Mpa]KG[Trp(5-F)][Trp(5-F)]P[β3hT]Y[αMeP]C-NH2; linker 1-10 via mXylylene) | 0.0001 to 0.1 µM | 0.00011 to 0.1 µM |
